The results in this text go back to US20230255972A1, “PYRIMIDINE COMPOUND-CONTAINING COMBINATION TO BE USED IN TUMOR TREATMENT” (TAIHO PHARMACEUTICAL CO., LTD., priority 2020, published 2023).

The target of experiment [1] is T1, human HER2 exon 20 insertion mutant (A775_G776insYVMA) protein (Homo sapiens, UniProt P04626, INS775YVMA).
T1 construct: purchased SignalChem
Put plainly: Inhibitory action (in vitro) against HER2 exon 20 insertion mutant phosphorylation activity. Type of experiment: biochemical. Conditions: pre-incubated 30 minutes, ATP 200 μM, 25°C, 220 minutes; read-out: HER2ex20insYVMA inhibitory activity IC50 value.

The subject of a further experiment is NCI-H1975 cells. The experiment can be described thus: Growth inhibitory activity against NCI-H1975 (L858R and T790M mutant EGFR-positive). Conditions: Homo sapiens, NCI-H1975, 72 h; 3 days; read-out: Cell growth inhibitory activity GI 50 value, NCI-H1975. Type of experiment: cell-based. The protocol: (§1) Test Example 7 Measurement of Growth Inhibitory Activity Against EGFR Overexpressing Cell Line and Exon 20 Insertion Mutant EGFR Expressing Cell Line
(§2) Growth inhibitory activity against an EGFR overexpressing cell line and an exon 20 insertion mutant EGFR expressing cell line was evaluated using MDA-MB-468 cells (ATCC) as an EGFR overexpressing human breast cancer cell line; NCI-H1975 cells (ATCC) as L858R and T790M mutant EGFR-positive human lung cancer cells; and MCF10A_EGFR cells, MCF10A_EGFR/V769_D770insASV cells, MCF10A_EGFR/D770_N771insSVD cells, and MCF10A_EGFR/H773_V774insNPH cells (Fukushima Medical University) which were cells obtained by introducing the EGFR gene (WT, […], D770_N771insSVD mutant, H773_V774insNPH mutant) into MCF10A cells as human normal mammary gland cells.
(§3) The MDA-MB-468 cells were suspended in Leibovitz's L-15 medium containing 10% inactivated fetal bovine serum. The NCI-H1975 cells were suspended in RPMI-1640 medium containing 10% inactivated fetal bovine serum. The MCF10A_EGFR cells, the MCF10A_EGFR/V769_D770insASV cells, the MCF10A_EGFR/D770_N771insSVD cells, or the MCF10A_EGFR/H773_V774insNPH cells were suspended in DMEM/Ham's F-12 medium (containing L-glutamine, phenol red, HEPES, and sodium pyruvate) containing 10 μg/mL insulin, 500 ng/mL hydrocortisone, 5 μmol/L forskolin, and 5% inactivated horse serum in terms of their final concentrations. Each cell suspension was seeded in each well of a 96-well flat-bottom plate such that the number of cells per well was 500, and was then cultured in a carbon dioxide gas-free culture vessel for the MDA-MB-468 cells and in a 5% carbon dioxide gas-containing culture vessel for the other cells at 37° C. for 1 day. The pyrimidine compound of the present invention was prepared at 1 mM in DMSO and then diluted 1/200 with a medium to prepare a 5 μM solution. […]
(§4) The cells at the start of the culture (day 0) and after the culture (day 3) were counted using CellTiter-Glo(R) 2.0 Reagent (Promega Corp.) according to the protocol recommended by the manufacturer. […]

The next experiment has as its system MCF10A_EGFR cells. Put plainly: Growth inhibitory activity against MCF10A_EGFR (EGFR-WT). Type of experiment: cell-based. As to conditions: Homo sapiens, 72 h; 3 days; read-out: Cell growth inhibitory activity GI 50 value, MCF10A_EGFR cell (EGFR-WT). The protocol: as §1, §2, §3, §4
Experiment [2] deals with MCF10A_EGFR/V769_D770insASV cells. The experiment can be described thus: Growth inhibitory activity against MCF10A_EGFR/V769_D770insASV. Type of experiment: cell-based. Conditions: Homo sapiens, 72 h; 3 days; read-out: Cell growth inhibitory activity GI 50 value, MCF10A_EGFR/V769_D770insASV cell. The procedure: as §1, §2, §3, §4
A further experiment concerns MDA-MB-468 cells. The experiment can be described thus: Growth inhibitory activity against EGFR overexpressing cell line MDA-MB-468. Type of experiment: cell-based. Conditions: Homo sapiens, MDA-MB-468, 72 h, read-out: Cell growth inhibitory activity GI 50 value, MDA-MB-468; 3 days. The procedure: as §1, §2, §3, §4

Usually IC50 stands for the concentration needed to halve the response being measured.

T1 sequence (P04626 with tags, fused parts or gaps INS775YVMA limits assumed): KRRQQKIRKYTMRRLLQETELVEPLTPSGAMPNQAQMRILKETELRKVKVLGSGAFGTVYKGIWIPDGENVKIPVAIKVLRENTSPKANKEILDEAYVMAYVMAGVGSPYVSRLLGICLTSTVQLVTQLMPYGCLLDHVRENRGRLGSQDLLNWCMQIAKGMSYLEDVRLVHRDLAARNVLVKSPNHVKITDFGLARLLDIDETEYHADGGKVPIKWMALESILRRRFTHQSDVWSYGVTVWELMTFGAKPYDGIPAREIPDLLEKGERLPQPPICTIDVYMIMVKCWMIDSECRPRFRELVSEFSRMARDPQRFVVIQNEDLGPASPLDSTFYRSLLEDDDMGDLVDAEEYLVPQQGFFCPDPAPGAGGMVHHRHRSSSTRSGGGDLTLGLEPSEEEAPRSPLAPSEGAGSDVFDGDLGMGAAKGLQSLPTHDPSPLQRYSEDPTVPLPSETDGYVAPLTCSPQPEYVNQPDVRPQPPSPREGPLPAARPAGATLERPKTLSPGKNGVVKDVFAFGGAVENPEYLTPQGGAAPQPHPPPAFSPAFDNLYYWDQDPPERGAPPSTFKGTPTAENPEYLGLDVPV

As to `C=CC(=O)N1C[C@H](n2c(C#CC)c(C(=O)N[C@H](C)c3ccccc3)c3c(N)ncnc32)C[C@@H]1C` [Example 2, 7-((3R,5S)-1-acryloyl-5-methylpyrrolidin-3-yl)-4-amino-N—((R)-1-phenylethyl)-6-(prop-1-yn-1-yl)-7H-pyrrolo[2,3-d]pyrimidine-5-carboxamide], the half-inhibitory concentration (IC50) in experiment [1] is under 0.0003 µM. The GI50 stood at 0.077 µM with NCI-H1975 cells, 0.055 µM in the experiment with MCF10A_EGFR cells, 0.0067 µM in experiment [2] and 0.081 µM in the experiment with MDA-MB-468 cells.

In the case of `C=CC(=O)N1C[C@H](n2c(C#CC3CC3)c(C(=O)N[C@H](C)c3ccccc3)c3c(N)ncnc32)C[C@@H]1C` [Example 11, 7-((3R,5S)-1-acryloyl-5-methylpyrrolidin-3-yl)-4-amino-6-(cyclopropylethynyl)-N—((R)-1-phenylethyl)-7H-pyrrolo[2,3-d]pyrimidine-5-carboxamide], the IC50 in experiment [1] is under 0.0003 µM. The GI50 with NCI-H1975 cells was 0.087 µM; in the experiment on MCF10A_EGFR cells it was 0.081 µM; in experiment [2], 0.0073 µM; in the experiment on MDA-MB-468 cells, 0.099 µM.

Take `C=CC(=O)N1C[C@H](n2c(C#CC(C)(C)C)c(C(=O)N[C@H](C)c3ccccc3)c3c(N)ncnc32)C[C@@H]1C` [Example 12, 7-((3R,5S)-1-acryloyl-5-methylpyrrolidin-3-yl)-4-amino-6-(3,3-dimethylbut-1-yn-1-yl)-N—((R)-1-phenylethyl)-7H-pyrrolo[2,3-d]pyrimidine-5-carboxamide]: the IC50 in experiment [1] was 0.00039 µM. For the same molecule, the GI50 was determined as 0.153 µM in the experiment with NCI-H1975 cells, 0.206 µM in the experiment with MCF10A_EGFR cells, 0.024 µM in experiment [2] and 0.221 µM in the experiment with MDA-MB-468 cells.
